Results as given in US10894059B2, “NADH compound composition, and preparation and use thereof” (BONTAC BIO-ENGINEERING (SHENZHEN) CO., LTD, priority 2017, dated 2021).

How the values were obtained:
[1] = people taking L-carnitine for weight loss, as much as 1˜3 g; cited from earlier work
[2] = test system: mice fed with high fat feed; test: Comparative pharmacological evaluation in obese mice (high fat feed model); assay type: in vivo; details: gavage once a day, 50 mg according to L-carnitine, 4 weeks
Procedure: Fifty male mice are selected at 6 weeks of age. The basal feed is fed for two weeks before the start of the experiment, and the initial body weight is 26±2 g. All experimental groups are randomly divided into 5 groups of 10 each, and the groups were as follows. (1) obesity experiment group: 1 group; (2) obesity experiment group: 2 groups; (3) obese control group; (4) obese blank group; (5) normal blank group Cage feeding, 5 in 1 cage; ambient temperature of 22±2° C., humidity of 45˜65%; the light illumination alternates for 12 h, and the mice are free to eat and drink. Among them, the normal blank group is fed with normal feed, and the other 4 groups are fed with high fat feed; changes in body weight are recorded twice a week; the feeding process lasts 6 weeks to establish the model. Group (1) is given a solution of the NADH compound composition prepared in Embodiment 1 by gavage once a day; Group (2) is given a mixture of NADH and L-carnitine in Embodiment 1 (without other ingredients) by gavage once a day; Group (3) is given L-carnitine by gavage once a day; the amount of administration for Group (1), Group (2) and Group (3) is 50 mg according to L-carnitine; during the period, 5 groups of mice are fed with normal diet in free diet, and continued to be observed for 4 weeks. […]

## C[N+](C)(C)C[C@H](O)CC(=O)[O-] [L-carnitine, β-hydroxy γ-trimethylammonium butyrate]
[1]
  absolute bioavailability: 15.9±4.9%
[2]; (fat around kidney + fat around testicles)/body weight after test*100
  Body fat ratio (%): 2.35 ± 2.69%
[2]; weight growth/experimental initial weight*100
  Body weight growth rate (%): 44.98 ± 3.44%
